Assay results: US4797280A, “Antibiotics produced by Kibdelosporangium aridum Shearer gen. nov., sp. nov. ATCC 39323” (SmithKline Beckman Corporation, priority 1986, dated 1989)
Where a SMILES comes first, the peptide text is derived from it. Bridges are numbered along the chain shown (N, C = ends). [ ]: non-standard residue; d: D form. The star is where a group is joined. Ileψ(thiazoline)Cys = CC[C@H](C)[C@H](N)C1=N[C@H](C(=O)*)CS1; dOrn = NCCC[C@@H](N)C(=O)O

Assays:
Kibdelosporangium aridum = experiment: Susceptibility of K. aridum to antibiotics, disk diffusion; assay type: cell-based; conditions: for Susceptibility of K. aridum: 28° C., one week
Procedure: Susceptibility of K. aridum to antibiotics was examined by placing BBL susceptibility disks on nutrient agar plates seeded with K. aridum as an overlay. Diameters of the zones of inhibition were measured after incubation for one week at 28° C.
Susceptibility to Antibiotics. […] Chlortetracycline ([…]) produced 18 mm zones of inhibition; tetracycline (5 μg) 11-12 mm zones; rifampin (5 μg) 11-15 mm zones; novobiocin (5 μg) 27-28 mm zones. All zones of inhibition contained at least a few resistant colonies.

[1] = test system: rumen fluid from dairy cows; experiment: Rumen in vitro experiment with dairy cow rumen fluid; conditions: about 23 hours
Procedure: A similar experiment was carried out using rumen fluid from dairy cows fed a typical dairy cow diet of two parts corn silage and three parts dairy concentrate. Specifically, strained rumen fluid (10 ml) was obtained, from an animal fed two hours earlier, via cannula and was mixed with 10 ml of a nutrient broth comprising a 2:3 mix of corn silage and dairy concentrate. After adding a selected growth promotant, the mixture was incubated at 39° C. for about 23 hours, with oscillation.

rumen inoculum = experiment: Rumen in vitro model; design: species or system steer

In the case of `CN(C)[C@@H]1C(O)=C(C(N)=O)C(=O)[C@@]2(O)C(O)=C3C(=O)c4c(O)ccc(Cl)c4[C@@](C)(O)[C@H]3C[C@@H]12` [Chlortetracycline], the Zone of inhibition (Kibdelosporangium aridum; disk 5 g (so in the source), zones contained a few resistant colonies) is reported as 18 mm.

For `CC[C@@]1([C@H]2O[C@H]([C@H]3O[C@@](O)(CO)[C@H](C)C[C@@H]3C)C[C@H]2C)CC[C@H]([C@@]2(C)CC[C@]3(C[C@H](O)[C@@H](C)[C@@H]([C@H](C)[C@H](OC)[C@@H](C)C(=O)O)O3)O2)O1` [Monensin Sodium], the “% PR” value ([1]; 0.5 ppm) was 117% OF CONTROL, the ACE ([1]; 0.5 ppm) was 100% OF CONTROL and the AMO ([1]; 0.5 ppm) was 115% OF CONTROL. It also gave a BUT ([1]; 0.5 ppm) of 94% OF CONTROL, a DLAC ([1]; 0.5 ppm) of 0% OF CONTROL and an ETOH ([1]; 0.5 ppm) of 0% OF CONTROL. For the same compound, the GLU ([1]; 0.5 ppm) was 0% OF CONTROL, the IBU ([1]; 0.5 ppm) was 104% OF CONTROL and the IVA ([1]; 0.5 ppm) was 114% OF CONTROL. The LLAC ([1]; 0.5 ppm) was 0% OF CONTROL, the LYS ([1]; 0.5 ppm) was 96% OF CONTROL and the NH--N ([1]; 0.5 ppm) was 137% OF CONTROL. It also gave a PRO ([1]; 0.5 ppm) of 122% OF CONTROL, a TOTAL ([1]; 0.5 ppm) of 104% OF CONTROL and a VAL ([1]; 0.5 ppm) of 105% OF CONTROL. The “% PR” value ([1]; 5 ppm) was 146% OF CONTROL, the ACE ([1]; 5 ppm) was 102% OF CONTROL and the AMO ([1]; 5 ppm) was 238% OF CONTROL. For the same compound, the BUT ([1]; 5 ppm) was 71% OF CONTROL, the DLAC ([1]; 5 ppm) was 0% OF CONTROL and the ETOH ([1]; 5 ppm) was 0% OF CONTROL. The GLU ([1]; 5 ppm) was 0% OF CONTROL, the IBU ([1]; 5 ppm) was 91% OF CONTROL and the IVA ([1]; 5 ppm) was 75% OF CONTROL. The LLAC ([1]; 5 ppm) was 0% OF CONTROL, the LYS ([1]; 5 ppm) was 95% OF CONTROL and the NH--N ([1]; 5 ppm) was 105% OF CONTROL. It also gave a PRO ([1]; 5 ppm) of 145% OF CONTROL, a TOTAL ([1]; 5 ppm) of 99% OF CONTROL and a VAL ([1]; 5 ppm) of 81% OF CONTROL. The “% PR” value ([1]; 50 ppm) was 185% OF CONTROL, the ACE ([1]; 50 ppm) was 76% OF CONTROL and the AMO ([1]; 50 ppm) was 274% OF CONTROL. For the same compound, the BUT ([1]; 50 ppm) was 59% OF CONTROL, the DLAC ([1]; 50 ppm) was 0% OF CONTROL and the ETOH ([1]; 50 ppm) was 0% OF CONTROL. The GLU ([1]; 50 ppm) was 0% OF CONTROL, the IBU ([1]; 50 ppm) was 55% OF CONTROL and the IVA ([1]; 50 ppm) was 45% OF CONTROL. The LLAC ([1]; 50 ppm) was 0% OF CONTROL, the LYS ([1]; 50 ppm) was 120% OF CONTROL and the NH--N ([1]; 50 ppm) was 84% OF CONTROL. It also gave a PRO ([1]; 50 ppm) of 159% OF CONTROL, a TOTAL ([1]; 50 ppm) of 86% OF CONTROL and a VAL ([1]; 50 ppm) of 58% OF CONTROL. The “% PR” value (rumen inoculum; 0.5 ppm) was 119% OF CONTROL, the ACE (rumen inoculum; 0.5 ppm) was 78% OF CONTROL and the AMO (rumen inoculum; 0.5 ppm) was 0% OF CONTROL. For the same compound, the BUT (rumen inoculum; 0.5 ppm) was 100% OF CONTROL, the DLAC (rumen inoculum; 0.5 ppm) was 0% OF CONTROL and the ETOH (rumen inoculum; 0.5 ppm) was 0% OF CONTROL. It also gave an IBU (rumen inoculum; 0.5 ppm) of 138% OF CONTROL, an IVA (rumen inoculum; 0.5 ppm) of 219% OF CONTROL and an LLAC (rumen inoculum; 0.5 ppm) of 0% OF CONTROL. It also gave a PRO (rumen inoculum; 0.5 ppm) of 112% OF CONTROL, a TOTAL (rumen inoculum; 0.5 ppm) of 94% OF CONTROL and a UREA (rumen inoculum; 0.5 ppm) of 0% OF CONTROL. For the same compound, the VAL (rumen inoculum; 0.5 ppm) was 101% OF CONTROL, the VFA (rumen inoculum; 0.5 ppm) was 94 % Control and the “% PR” value (rumen inoculum; 5 ppm) was 149% OF CONTROL. The ACE (rumen inoculum; 5 ppm) was 74% OF CONTROL, the AMO (rumen inoculum; 5 ppm) was 0% OF CONTROL and the BUT (rumen inoculum; 5 ppm) was 93% OF CONTROL. For the same compound, the DLAC (rumen inoculum; 5 ppm) was 0% OF CONTROL, the ETOH (rumen inoculum; 5 ppm) was 0% OF CONTROL and the IVA (rumen inoculum; 5 ppm) was 265% OF CONTROL. The LLAC (rumen inoculum; 5 ppm) was 178% OF CONTROL, the PRO (rumen inoculum; 5 ppm) was 154% OF CONTROL and the TOTAL (rumen inoculum; 5 ppm) was 104% OF CONTROL. The UREA (rumen inoculum; 5 ppm) was 0% OF CONTROL, the VAL (rumen inoculum; 5 ppm) was 99% OF CONTROL and the VFA (rumen inoculum; 5 ppm) was 104 % Control. The “% PR” value (rumen inoculum; 50 ppm) was 156% OF CONTROL, the ACE (rumen inoculum; 50 ppm) was 73% OF CONTROL and the AMO (rumen inoculum; 50 ppm) was 0% OF CONTROL. For the same compound, the BUT (rumen inoculum; 50 ppm) was 98% OF CONTROL, the DLAC (rumen inoculum; 50 ppm) was 0% OF CONTROL and the ETOH (rumen inoculum; 50 ppm) was 0% OF CONTROL. For the same compound, the IBU (rumen inoculum; 50 ppm) was 196% OF CONTROL, the IVA (rumen inoculum; 50 ppm) was 278% OF CONTROL and the LLAC (rumen inoculum; 50 ppm) was 999% OF CONTROL. The PRO (rumen inoculum; 50 ppm) was 171% OF CONTROL, the UREA (rumen inoculum; 50 ppm) was 0% OF CONTROL and the VAL (rumen inoculum; 50 ppm) was 107% OF CONTROL.

`CC[C@H](C)[C@H](N)C1=N[C@H](C(=O)N[C@@H](CC(C)C)C(=O)N[C@H](CCC(=O)O)C(=O)N[C@H](C(=O)N[C@H]2CCCCNC(=O)[C@H](CC(N)=O)NC(=O)[C@@H](CC(=O)O)NC(=O)[C@H](Cc3cnc[nH]3)NC(=O)[C@@H](Cc3ccccc3)NC(=O)[C@H]([C@@H](C)CC)NC(=O)[C@@H](CCCN)NC2=O)[C@@H](C)CC)CS1` [bacitracin] ({Ileψ(thiazoline)Cys}-L[dE]IK[dOrn]I[dF]H[dD]N; lactam 4-C) was tested, and the “Susceptibility of K. aridum” value (Kibdelosporangium aridum; disk 2 units) was “resistant”.

For `CC(=O)OCC1=C(C(=O)O)N2C(=O)[C@@H](NC(=O)Cc3cccs3)[C@H]2SC1` [cephalothin], the “Susceptibility of K. aridum” value (Kibdelosporangium aridum; disk 30 μg) was “resistant”.

`CCC[C@@H]1C[C@@H](C(=O)N[C@@H]([C@H]2O[C@H](SC)[C@H](O)[C@@H](O)[C@H]2O)[C@H](C)Cl)N(C)C1` [clindamycin] was tested, and the “Susceptibility of K. aridum” value (Kibdelosporangium aridum; disk 2 μg) was “resistant”.

In the case of `CCC[C@@H]1C[C@@H](C(=O)N[C@@H]([C@H]2O[C@H](SC)[C@H](O)[C@@H](O)[C@H]2O)[C@@H](C)O)N(C)C1` [lincomycin], the “Susceptibility of K. aridum” value (Kibdelosporangium aridum; disk 2 μg) is reported as “resistant”.

In the case of `CC1(C)S[C@@H]2[C@H](NC(=O)Cc3ccccc3)C(=O)N2[C@H]1C(=O)O` [penicillin], the “Susceptibility of K. aridum” value (Kibdelosporangium aridum; disk 10 units) is reported as “resistant”.

With `[H]/N=C(/N)N[C@H]1[C@H](O)[C@@H](O)[C@H](O[C@@H]2O[C@@H](C)[C@](O)(C=O)[C@H]2O[C@@H]2O[C@@H](CO)[C@H](O)[C@@H](O)[C@@H]2NC)[C@@H](N/C(N)=N\[H])[C@@H]1O` [streptomycin] the “Susceptibility of K. aridum” value (Kibdelosporangium aridum; disk 10 μg) was “resistant”.

In the case of `NC[C@H]1O[C@H](O[C@H]2[C@H](O)[C@@H](O[C@H]3O[C@H](CO)[C@@H](O)[C@H](N)[C@H]3O)[C@H](N)C[C@@H]2N)[C@H](N)C[C@@H]1O` [tobramycin], the “Susceptibility of K. aridum” value (Kibdelosporangium aridum; disk 10 μg) is reported as “resistant”.

For Saloinomycin, the “% PR” value ([1]; 0.5 ppm) was 126% OF CONTROL, the ACE ([1]; 0.5 ppm) was 95% OF CONTROL and the AMO ([1]; 0.5 ppm) was 117% OF CONTROL. For the same compound, the BUT ([1]; 0.5 ppm) was 83% OF CONTROL, the DLAC ([1]; 0.5 ppm) was 0% OF CONTROL and the ETOH ([1]; 0.5 ppm) was 0% OF CONTROL. For the same compound, the GLU ([1]; 0.5 ppm) was 0% OF CONTROL, the IBU ([1]; 0.5 ppm) was 153% OF CONTROL and the IVA ([1]; 0.5 ppm) was 110% OF CONTROL. It also gave an LLAC ([1]; 0.5 ppm) of 0% OF CONTROL, an LYS ([1]; 0.5 ppm) of 119% OF CONTROL and an NH--N ([1]; 0.5 ppm) of 136% OF CONTROL. It also gave a PRO ([1]; 0.5 ppm) of 124% OF CONTROL, a TOTAL ([1]; 0.5 ppm) of 99% OF CONTROL and a VAL ([1]; 0.5 ppm) of 94% OF CONTROL. The “% PR” value ([1]; 5 ppm) was 152% OF CONTROL, the ACE ([1]; 5 ppm) was 99% OF CONTROL and the AMO ([1]; 5 ppm) was 226% OF CONTROL. It also gave a BUT ([1]; 5 ppm) of 66% OF CONTROL, a DLAC ([1]; 5 ppm) of 0% OF CONTROL and an ETOH ([1]; 5 ppm) of 0% OF CONTROL. For the same compound, the GLU ([1]; 5 ppm) was 0% OF CONTROL, the IBU ([1]; 5 ppm) was 108% OF CONTROL and the IVA ([1]; 5 ppm) was 75% OF CONTROL. It also gave an LLAC ([1]; 5 ppm) of 0% OF CONTROL, an LYS ([1]; 5 ppm) of 117% OF CONTROL and an NH--N ([1]; 5 ppm) of 116% OF CONTROL. For the same compound, the PRO ([1]; 5 ppm) was 148% OF CONTROL, the TOTAL ([1]; 5 ppm) was 98% OF CONTROL and the VAL ([1]; 5 ppm) was 83% OF CONTROL. For the same compound, the “% PR” value ([1]; 50 ppm) was 188% OF CONTROL, the ACE ([1]; 50 ppm) was 76% OF CONTROL and the AMO ([1]; 50 ppm) was 268% OF CONTROL. The BUT ([1]; 50 ppm) was 63% OF CONTROL, the DLAC ([1]; 50 ppm) was 0% OF CONTROL and the ETOH ([1]; 50 ppm) was 0% OF CONTROL. For the same compound, the GLU ([1]; 50 ppm) was 0% OF CONTROL, the IBU ([1]; 50 ppm) was 61% OF CONTROL and the IVA ([1]; 50 ppm) was 46% OF CONTROL. It also gave an LLAC ([1]; 50 ppm) of 0% OF CONTROL, an LYS ([1]; 50 ppm) of 114% OF CONTROL and an NH--N ([1]; 50 ppm) of 82% OF CONTROL. The PRO ([1]; 50 ppm) was 168% OF CONTROL, the TOTAL ([1]; 50 ppm) was 89% OF CONTROL and the VAL ([1]; 50 ppm) was 60% OF CONTROL.

With gentamicin the “Susceptibility of K. aridum” value (Kibdelosporangium aridum; disk 10 μg) was “resistant”.
